Test: xn = mol fraction of the nth substance listed
Conditions: Liquid

C=C [ethene] + CO
Conditions	mass density [kg/m3]
278.15 K, x1 = 0.147	742.3
278.15 K, x1 = 0.189	722.2
278.15 K, x1 = 0.295	675.3
278.15 K, x1 = 0.373	644.9
278.15 K, x1 = 0.989	322
283.65 K, x1 = 0.14	741.3
283.65 K, x1 = 0.221	706
283.65 K, x1 = 0.325	657.5
283.65 K, x1 = 0.432	610.9
283.65 K, x1 = 0.475	589.1
283.65 K, x1 = 0.984	258.5

Source: the NIST ThermoML archive (doi:10.1021/je050374d)
